Blank lines part the entries; values can stand above or below the molecule they belong to.
What was measured:
[1] = Ease of emulsification, water content of oil phase by Karl Fisher; assay type: physicochemical; conditions: 20 ml toluene + 20 ml test solvent + 20 ml water, 40° C., 15 minutes
Protocol: In this Example, the emulsifying properties of the compositions of the invention were compared to various commonly used solvents and to mixes of benzoates.
Tests were conducted by adding exactly 20 ml of toluene to 20 ml of the test solvent in a glass stoppered cylinder and shaking to mix. When mixed, 20 ml of water was then added, the resulting mixture warmed to 40° C. and shaken 30 times.

[2] = Spreading Coefficient and interfacial tension against water; assay type: physicochemical
From the text: The higher the Spreading Coefficient, the greater the spreadability.

skin = conditions: in vivo; cited from earlier work
rats = conditions: Example 13; no source given; cited from earlier work
[3] = Greasiness comparison on skin; conditions: 70°-73°F
From the text: A comparison of the composition of the present invention was undertaken with a single benzoate ester falling within the carbon chain length range encompassed in the mixtures of the invention. […] This ester product is the benzoic acid ester of a mixture of C12, C13, C14 and C15 alcohols corresponding to that contained in the NEODOL 25 alcohol.

[4] = Cloud point and pour point; assay type: physicochemical
Protocol: "Cloud point", refers to the temperature at which a waxy solid material appears as the liquid composition being examined is cooled. Cloud points are also associated with pour points, which is the lowest temperature at which a liquid will flow when a container is inverted. In all cases as the temperature is lowered, the cloud point is detected first, with the pour point being generally 5°-25° F. lower.

[5] = Gel formation/settling with suspending agents; assay type: physicochemical

Molecule: CCCCCCCCCCCCCC(=O)OC(C)C [IPM (isopropyl myristate), isopropyl myristate]
% Water in Oil Phase (upper layer; by K-F Method) [1]: 0.12%
Spreading Coefficient [2]: 17.7 dynes/cm
interfacial tension against water ([2]; 25° C.): 17. dynes/cm
Skin irritation (skin): suspect as an irritant

Molecule: CCCCOC(=O)c1ccccc1 [butyl benzoate]
LD50 (comparison ester) (rats): 3.5 g/kg of body weight

Molecule: CCCCCCCCCCCCCCCC(=O)OC(C)C [IPP (isopropyl palmitate), isopropyl palmitate]
% Water in Oil Phase (upper layer; by K-F Method) [1]: 0.66%

Next, values leading:

% Water in Oil Phase (upper layer; by K-F Method) [1]: 0.26%
Molecule: Octyl Isononanoate

Physical state at ambient room temperature [3]: virtually a solid
Cloud point [4]: 21 °C
Settling time [5]: 60 to 90 s
Gel viscosity ([5]; used as the organic liquid for the gel): abnormally high viscosities
Molecule: CCCCCCCCCCCCCCOC(=O)c1ccccc1 [Myristyl benzoate, myristyl (C14) benzoate]

— US4322545A, “Benzoic acid esters” (priority 1981, dated 1982)
